Drawing on US20240374738A1, “BIFUNCTIONAL COMPOUND CAPABLE OF DEGRADING RECEPTOR TYROSINE KINASE AND APPLICATION THEREOF” (TAIBIDI PHARMACEUTICAL TECHNOLOGY (SHIJIAZHUANG) CO., LTD., priority 2023, published 2024), this text covers IC50 and Dmax for 18 compounds.

Holding throughout (type): cell-based
For one assay, the system named is MKN45. The assay can be described thus: Growth inhibition of gastric cancer cells MKN45 (CCK-8). The note with it: Homo sapiens, MKN-45, half inhibitory concentration, 72 hours. The protocol: (§1) Inoculate gastric cancer cells (SNU5 or MKN45) into a 96 well plate at a concentration of […], with 100 μl added to each well. Incubate for 30 minutes. Observe the cell status under a microscope. Prepare compounds, weigh a certain amount of the series compounds or reference drug cabozantinib of this patent, first prepare a high concentration mother liquor with pure DMSO, and use gradient dilution method to prepare a concentration of 200 μM, 60 μM, 20 μM, 6 μM, 2 μM, 600 nM, 200 nM, 0 nM drug solution, shake to make it fully mixed. The control group was prepared with cabozantinib using the same solvent and method.
(§2) After preparation, add 1 μl of drug solution to each well of the 96 well plate, and then add 100 μl of culture medium. Repeat each dose three times. Gently shake to allow the cells and medication to come into full contact and incubate in the incubator for 72 hours. 72 hours later, remove and color with CCK-8 reagent kit. Add 20 μl of CCK-8 reagent to each well, gently shake well, and incubate in the incubator for 1 hour. After 1 hour, remove and measure the absorbance of each well using an enzyme-linked immunosorbent assay (ELISA) reader at a wavelength of 450 nm.
(§3) According to the formula: Cell growth inhibition rate=[1−(absorbance of experimental group absorbance of culture medium control group)/(absorbance of blank control group−absorbance of culture medium control group)]×100%. It can be concluded that the compound has the ability to inhibit the growth of gastric cancer cells at the current dose and time.
(§4) Draw a graph based on the gradient of concentration and use GraphPad Prism 9 software (GraphPad Software, La Jolla, CA) to calculate the maximum inhibitory concentration (IC50) at 50%.
(§5) Referring to steps 1 and 2 of this embodiment, the inhibitory effect of the compound of the present invention on the growth of cancer cells and the degradation effect of target proteins were measured, and the following results were obtained (see Table 2 below).
(§6) The growth inhibitory effects of the compound of the present invention on tumor cell lines MKN45 and SNU5 were measured. The activity is expressed as half inhibitory concentration (C50). The results are shown in Table 2 below; When the half inhibitory concentration is less than or equal to 100 nM, the compound activity is labeled as “++++”; When the half inhibitory concentration is greater than 100 nM and less than 500 nM, the compound activity is labeled as […] and less than 1000 nM, the compound activity is labeled as “++”; When the half inhibitory concentration is greater than 1000 nM and less than 3000 nM, the compound activity is marked as “+”; When the half inhibitory concentration is greater than 3000 nM, the compound activity is marked as […]

The target in another assay is DDR1 (Homo sapiens, UniProt Q08345). Put plainly: Degradation of DDR1 in tumor cell MKN45 (Western blot). Details: The degradation activity of the compounds against DDR1 in the MKN45 cell line; endogenous in cells; host or cells: MKN45. The note with it: MKN-45, maximum degradation percentage, MKN45 cells, 24 hours. The procedure:
Western blot experiment: Take gastric cancer cells (MKN45) and inoculate them into a 6-well plate at a concentration of […], adding 2 ml to each well and incubating for 24 hours.
The next day, observe the cells under a microscope to confirm their status. Prepare compounds, weigh a certain amount of the series compounds or reference drug cabozantinib from this patent, first prepare a high concentration mother liquor with pure DMSO, and use gradient dilution method to prepare compound concentrations of 2 mM, 200 μM, 100 μM, 20 μM, 2 μM, 200 nM, and 0 nM. The final concentration of DMSO is 0.5%. Shake to thoroughly mix. Add 10 μl of solution to each well. After incubation for 24 hours, remove the cells and use a pipette to aspirate the suspended cells into a 1.5 ml centrifuge tube. Centrifuge at 5000 rpm for 10 minutes to precipitate the cells. Carefully remove the cell precipitate from the culture medium, add 1 ml of PBS and shake slightly. After repeated cleaning for 3 times, dry the residue. Add 150 μl of RIPA lysate pre mixed with 1% PMSF, blow to allow the lysate to fully contact the cells, and incubate on ice for 10 minutes. Centrifuge at 12000 rpm for 10 minutes, extract the supernatant, use the BCA protein quantification kit to determine and homogenize the sample loading.
Mix BCA-A in a 50:1 ratio Prepare working solution with B solution, dilute the sample by 5 times, then pipette 20 μl onto a 96 well ELISA plate. Add 200 μl of pre mixed BCA working solution and incubate at 37° C. for 20 minutes. Measure the A562 nm absorbance value using an ELISA reader and substitute it into the protein standard curve formula to obtain the sample concentration. After calculating the required volume for loading […] of sample, divide the sample into 1.5 ml centrifuge tubes. Add 10 μl of sample buffer to each tube and mix well. Heat in a 95° C. metal bath for 5 minutes to denature the protein.
Take 4-20% gradient pre adhesive and fix it on the adhesive rack. Add electrophoresis solution to the slot and remove the comb, Marker and protein samples were loaded, and after 30 minutes of electrophoresis at 80V, the voltage was adjusted to 120V for electrophoresis, The marker band stops electrophoresis at the forefront of the gel. Take out the adhesive block and cut it to the appropriate size, The PVDF membrane was cut and activated in methanol, and after activation, the PVDF membrane was equilibrated in a membrane transfer equilibrium solution for 1 minute. Using sponge pads The sequence of PVDF film, adhesive, and sponge pad is placed in the splint and placed in the eBlot equipment for rapid wet rotation. Remove the membrane and seal it in 5% skim milk powder dissolved in 1×TBST for 1 hour. Cut the membrane according to the molecular weight of the target protein and internal reference protein, and place it in primary antibody diluted with 1×TBST. Shake overnight at 4° C.
The next day, transfer the band to 1×TBST for 3 washes, then add a specific dilution of the secondary antibody and shake it for 1.5 hours. Transfer the band again to 1×TBST for 3 washes, prepare ECL color solution, place the membrane in the imaging system, cover the surface with ECL color solution, and take photos of the membrane using the imaging system.
Using the SHST analysis system to analyze the results, measure the grayscale values of each band of the target protein and internal reference protein. Normalize the grayscale values of the target protein/corresponding lane GAPDH grayscale values, and perform quantitative analysis according to the protein amount=experimental group grayscale value/blank control group grayscale value.
The activity of the compound of the present invention in degrading DDR in tumor cell line MKN45 was measured. […]
(In general: A western blot detects proteins with antibodies after separation by electrophoresis.)

A further assay relates to SNU5. Put plainly: Growth inhibition of gastric cancer cells SNU5 (CCK-8). The note with it: Homo sapiens, SNU-5, half inhibitory concentration, 72 hours. The procedure:
as §1, §2, §3, §4, §5, §6

Sequence of DDR1 (Q08345 19-913): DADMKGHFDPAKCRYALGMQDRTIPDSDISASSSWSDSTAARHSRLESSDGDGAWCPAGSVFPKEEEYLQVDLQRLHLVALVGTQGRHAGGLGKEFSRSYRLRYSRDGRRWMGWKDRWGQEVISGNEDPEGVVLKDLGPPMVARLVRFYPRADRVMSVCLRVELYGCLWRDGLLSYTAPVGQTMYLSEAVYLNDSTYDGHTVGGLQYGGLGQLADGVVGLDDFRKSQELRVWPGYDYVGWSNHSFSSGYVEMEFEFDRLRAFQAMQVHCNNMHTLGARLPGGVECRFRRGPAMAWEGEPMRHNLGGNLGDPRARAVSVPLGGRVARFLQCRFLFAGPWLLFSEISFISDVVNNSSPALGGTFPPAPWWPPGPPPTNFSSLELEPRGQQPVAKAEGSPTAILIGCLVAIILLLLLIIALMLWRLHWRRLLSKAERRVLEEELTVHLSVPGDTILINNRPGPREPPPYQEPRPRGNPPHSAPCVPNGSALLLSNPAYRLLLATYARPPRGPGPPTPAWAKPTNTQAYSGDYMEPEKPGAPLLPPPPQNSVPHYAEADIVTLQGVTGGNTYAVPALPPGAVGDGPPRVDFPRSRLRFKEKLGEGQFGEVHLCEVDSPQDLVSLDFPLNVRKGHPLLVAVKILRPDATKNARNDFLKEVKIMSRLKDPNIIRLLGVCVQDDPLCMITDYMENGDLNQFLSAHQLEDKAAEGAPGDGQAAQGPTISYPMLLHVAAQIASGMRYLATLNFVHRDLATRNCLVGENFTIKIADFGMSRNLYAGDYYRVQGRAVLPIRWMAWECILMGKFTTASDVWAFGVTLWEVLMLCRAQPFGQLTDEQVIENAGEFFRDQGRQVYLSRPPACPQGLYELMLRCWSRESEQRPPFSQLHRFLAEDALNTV

For `COc1cc2c(Oc3ccc(NC(=O)C4(C(=O)Nc5ccc(F)cc5)CC4)cc3)ccnc2cc1N1CCC(CN2C3CC2CN(CC(=O)Nc2cc4c(cn2)C(=O)N(C2CCC(=O)NC2=O)C4)C3)CC1` (stereo not drawn) [TPD12083], the 50% inhibitory concentration (IC50) in the assay with MKN45 and in the assay on SNU5 was at most 100 nM in each case. For the same compound, the Dmax on DDR1 lay in the range of 65 to 75%.
`O=C1CCC(N2Cc3c(C#CCCN4CC5CC(C4)N5CC4CCN(c5cc6nccc(Oc7ccc(NC(=O)C8(C(=O)Nc9ccc(F)cc9)CC8)cc7)c6cc5F)CC4)cccc3C2=O)C(=O)N1` (stereo not drawn) [TPD12235]: the IC50 in the assay on MKN45 and in the assay on SNU5 was at most 100 nM in each case. This compound also had a Dmax on DDR1 of 65 to 75%.
Consider `COc1cc2c(Oc3ccc(NC(=O)C4(C(=O)Nc5ccc(F)cc5)CC4)cc3)ccnc2c(F)c1N1CCC(CN2C3CC2CN(CCC(=O)Nc2cccc4c2CN(C2CCC(=O)NC2=O)C4=O)C3)CC1` (stereo not drawn) [TPD12140], for which the IC50 in the assay on MKN45 and in the assay with SNU5 was at most 100 nM throughout. In addition, the Dmax on DDR1 was in the range of 65 to 75%.
Take `COc1cc2c(Oc3ccc(NC(=O)C4(C(=O)Nc5ccc(F)cc5)CC4)cc3)ccnc2cc1N1CCC(CN2C3CC2CN(CCNc2cc4c(cn2)C(=O)N(C2CCC(=O)NC2=O)C4)C3)CC1` (stereo not drawn) [TPD12081]: the IC50 in the assay with MKN45 and in the assay on SNU5 was at most 100 nM throughout. Moreover, the greatest degradation seen (Dmax) on DDR1 fell in the range of 75 to 85%.
On to `COc1cc2c(Oc3ccc(NC(=O)C4(C(=O)Nc5ccc(F)cc5)CC4)cc3)ccnc2cc1NCC(=O)N1CCC(CN2CCN(c3ccc(N(C)C4CCC(=O)NC4=O)nc3F)CC2)CC1` (stereo not drawn) [TPD5773], for which the values for the IC50 in the assay with MKN45 and in the assay on SNU5 were 500 to 1000 nM and 100 to 500 nM, respectively. The compound also yielded a maximal degradation (Dmax) at DDR1 of 65 to 75%.
For `COc1cc2c(Oc3ccc(NC(=O)C4(C(=O)Nc5ccc(F)cc5)CC4)cc3)ccnc2cc1COCCN1CCC(OCCC(=O)N[C@H](C(=O)N2C[C@H](O)C[C@H]2C(=O)NCc2ccc(-c3scnc3C)cc2)C(C)(C)C)CC1` [TPD5305], in that order: 100 to 500 nM, 100 to 500 nM and 65 to 75%.
For `Cc1ncsc1-c1ccc(CNC(=O)[C@@H]2C[C@@H](O)CN2C(=O)[C@@H](NC(=O)CCN2CCC(COc3cnc(-c4cccc(Cn5nc(-c6cccc(C#N)c6)ccc5=O)c4)nc3)CC2)C(C)(C)C)cc1` [TPD10001], in that order: 500 to 1000 nM, 100 to 500 nM and 65 to 75%.
Regarding `O=C1CCC(N2Cc3c(NC(=O)CCN4CC5CC(C4)N5CC4CCN(c5cc6nccc(Oc7ccc(NC(=O)C8(C(=O)Nc9ccc(F)cc9)CC8)cc7)c6cc5OC(F)(F)F)CC4)cccc3C2=O)C(=O)N1` (stereo not drawn) [TPD12149], the 50% inhibitory concentration (IC50) in the assay with MKN45 and with SNU5 was at most 100 nM each time. The compound further had a Dmax at DDR1 of 75 to 85%.
`COc1cc2c(Oc3ccc(NC(=O)C4(C(=O)Nc5ccc(F)cc5)CC4)cc3)ccnc2cc1COCCN1CCC(OCCCNc2ccc3c(c2)C(=O)N(C2CCC(=O)NC2=O)C3=O)CC1` (stereo not drawn) [TPD5315]: the IC50 with MKN45 and in the assay on SNU5 was 100 to 500 nM in each case. For the same compound, on DDR1, the Dmax is over 85%.
With `COc1cc2c(Oc3ccc(NC(=O)C4(C(=O)Nc5ccc(F)cc5)CC4)cc3)ccnc2cc1N1CCC(CN2CCN(CCNc3ccc4c(n3)C(=O)N(C3CCC(=O)NC3=O)C4)CC2)CC1` (stereo not drawn) [TPD12013], the IC50 in the assay with MKN45 and in the assay with SNU5 was 100 to 500 nM in each case. For the same compound, the Dmax at DDR1 is over 85%.
Consider `COc1cc2c(Oc3ccc(NC(=O)C4(C(=O)Nc5ccc(F)cc5)CC4)cc3)ccnc2cc1N1CCC(CN2C[C@@H]3C[C@H]2CN3CC(=O)Nc2cc3c(cn2)C(=O)N(C2CCC(=O)NC2=O)C3)CC1` (stereo partly drawn) [TPD12100], for which the half-maximal inhibitory concentration (IC50) in the assay on MKN45 and in the assay with SNU5 was at most 100 nM each time. Further, the Dmax at DDR1 fell in the range of 65 to 75%.
As for `COc1cc2c(Oc3ccc(NC(=O)C4(C(=O)Nc5ccc(F)cc5)CC4)cc3)ccnc2cc1N1CCC(CN2CC3CC(C2)N3CCCNc2cc3c(cn2)C(=O)N(C2CCC(=O)NC2=O)C3)CC1` (stereo not drawn) [TPD12118], the IC50 in the assay with MKN45 and in the assay on SNU5 was at most 100 nM throughout. Further, the Dmax at DDR1 is 65 to 75%.
As to `O=C1CCC(N2Cc3cc(NC(=O)CCN4CC5CC(C4)N5CC4CCN(c5cc6nccc(Oc7ccc(NC(=O)C8(C(=O)Nc9ccc(F)cc9)CC8)cc7)c6cc5F)CC4)ncc3C2=O)C(=O)N1` (stereo not drawn) [TPD12162], the IC50 in the assay with MKN45 and with SNU5 was at most 100 nM each time. The Dmax at DDR1 was 65 to 75%.
As for `COc1cc2c(Oc3ccc(NC(=O)C4(C(=O)Nc5ccc(F)cc5)CC4)cc3)ccnc2cc1N1CCC(CN2C3CC2CN(CCC#Cc2cccc4c2CN(C2CCC(=O)NC2=O)C4=O)C3)CC1` (stereo not drawn) [TPD12234], the IC50 in the assay on MKN45 and with SNU5 was at most 100 nM each time. The Dmax on DDR1 was 75 to 85%.
Take `O=C1CCC(N2Cc3cc(NC(=O)CN4C[C@@H]5C[C@H]4CN5CC4CCN(c5cc6nccc(Oc7ccc(NC(=O)C8(C(=O)Nc9ccc(F)cc9)CC8)cc7)c6cc5F)CC4)ncc3C2=O)C(=O)N1` (stereo partly drawn) [TPD12102]: the IC50 in the assay on MKN45 and in the assay with SNU5 was at most 100 nM throughout. This compound also displayed a Dmax at DDR1 of 75 to 85%.
For `COc1cc2c(Oc3ccc(NC(=O)C4(C(=O)Nc5ccc(F)cc5)CC4)cc3)ccnc2cc1COCCN1CCN(CCNc2cccc3c2C(=O)N(C2CCC(=O)NC2=O)C3=O)CC1` (stereo not drawn) [TPD5316], the IC50 with MKN45 and in the assay with SNU5 was 500 to 1000 nM throughout. The Dmax on DDR1 lay in the range of 75 to 85%.
`COc1cc2c(Oc3ccc(NC(=O)C4(C(=O)Nc5ccc(F)cc5)CC4)cc3)ccnc2cc1NCCC(=O)N[C@H](C(=O)N1C[C@H](O)C[C@H]1C(=O)NCc1ccc(-c2scnc2C)cc1)C(C)(C)C` [TPD5415]: the IC50 in the assay with MKN45 and in the assay on SNU5 was 100 to 500 nM throughout. This compound also showed a Dmax on DDR1 of 65 to 75%.
As to `COc1cc2c(Oc3ccc(NC(=O)C4(C(=O)Nc5ccc(F)cc5)CC4)cc3)ccnc2cc1N1CCC(C(=O)N2CCC(C(=O)N[C@H](C(=O)N3C[C@H](O)C[C@H]3C(=O)NCc3ccc(-c4scnc4C)cc3)C(C)(C)C)CC2)CC1` [TPD5436], the IC50 with MKN45 and in the assay with SNU5 was 100 to 500 nM in each case. In addition, at DDR1, the Dmax lay within 65 to 75%.

One may read the IC50 as the concentration at which inhibition is half-maximal. The low end stands for greater potency in that assay, the high end for weaker potency in that assay. The term Dmax denotes the greatest extent of degradation seen. A lower Dmax goes with a partial loss of target.
